Assay results taken from ChEMBL document CHEMBL5126659, “Antiasthmatic Compounds Targeting β2-Adrenergic Receptor from Perilla frutescens Improved Lung Inflammation by Inhibiting the NF-κB Signaling Pathway” (J Nat Prod, 2022).
Calls of active or inactive are those of the source.

Experiments:
Assay type in all cases: functional, organism-based
[1] = test system: Rattus norvegicus; experiment: Anti-asthmatic activity against ovalbumin-induced asthmatic Sprague-Dawley rat model assessed as reduction in airway epithelial thickening in lungs at 4.5 to 18 mg/kg, po for 7 days by H and E staining based microscopic analysis; details: dose 4.5-18 mg/kg, time 7.0 day
[2] = test system: Rattus norvegicus; experiment: Anti-asthmatic activity against ovalbumin-induced asthmatic Sprague-Dawley rat model assessed as reduction in inflammatory cell infiltration in lungs at 4.5 to 18 mg/kg, po for 7 days by H and E staining based microscopic analysis; details: dose 4.5-18 mg/kg, time 7.0 day
[3] = test system: Rattus norvegicus; experiment: Anti-asthmatic activity against ovalbumin-induced asthmatic Sprague-Dawley rat model assessed as reduction in CCL11 mRNA expression in lungs at 4.5 to 18 mg/kg, po for 7 days by qRT-PCR analysis; details: dose 4.5-18 mg/kg, time 7.0 day
[4] = test system: Rattus norvegicus; experiment: Anti-asthmatic activity against ovalbumin-induced asthmatic Sprague-Dawley rat model assessed as reduction in IL-4 cytokine level in BALF at 4.5 to 18 mg/kg, po for 7 days by ELISA; details: dose 4.5-18 mg/kg, time 7.0 day
[5] = test system: Rattus norvegicus; experiment: Anti-asthmatic activity against ovalbumin-induced asthmatic Sprague-Dawley rat model assessed as reduction in YM2 mRNA expression in lungs at 4.5 to 18 mg/kg, po for 7 days by qRT-PCR analysis; details: dose 4.5-18 mg/kg, time 7.0 day
[6] = test system: Rattus norvegicus; experiment: Anti-asthmatic activity against ovalbumin-induced asthmatic Sprague-Dawley rat model assessed as reduction in OVA specific IgE level in BALF at 4.5 to 9 mg/kg, po for 7 days by ELISA; details: dose 4.5-9 mg/kg, time 7.0 day, DDE = dose-dependent effect
[7] = test system: Rattus norvegicus; experiment: Anti-asthmatic activity against ovalbumin-induced asthmatic Sprague-Dawley rat model assessed as reduction in OVA specific IgE level in BALF at 4.5 to 18 mg/kg, po for 7 days by ELISA; details: dose 4.5-18 mg/kg, time 7.0 day
[8] = test system: Rattus norvegicus; experiment: Anti-asthmatic activity against ovalbumin-induced asthmatic Sprague-Dawley rat model assessed as reduction in OVA specific IgE level in serum at 4.5 to 18 mg/kg, po for 7 days by ELISA; details: dose 4.5-18 mg/kg, time 7.0 day
[9] = test system: Rattus norvegicus; experiment: Anti-asthmatic activity against ovalbumin-induced asthmatic Sprague-Dawley rat model assessed as reduction in CCR3 mRNA expression in lungs at 4.5 to 18 mg/kg, po for 7 days by qRT-PCR analysis; details: dose 4.5-18 mg/kg, time 7.0 day
[10] = test system: Rattus norvegicus; experiment: Anti-asthmatic activity against ovalbumin-induced asthmatic Sprague-Dawley rat model assessed as reduction in OVA specific IgE level in serum at 4.5 to 9 mg/kg, po for 7 days by ELISA; details: dose 4.5-9 mg/kg, time 7.0 day, DDE = dose-dependent effect
[11] = test system: Rattus norvegicus; experiment: Anti-asthmatic activity against ovalbumin-induced asthmatic Sprague-Dawley rat model assessed as reduction in AMCase mRNA expression in lungs at 4.5 to 18 mg/kg, po for 7 days by qRT-PCR analysis; details: dose 4.5-18 mg/kg, time 7.0 day
[12] = test system: Rattus norvegicus; experiment: Anti-asthmatic activity against ovalbumin-induced asthmatic Sprague-Dawley rat model assessed as reduction in E-selectin mRNA expression in lungs at 4.5 to 18 mg/kg, po for 7 days by qRT-PCR analysis; details: dose 4.5-18 mg/kg, time 7.0 day
[13] = test system: Rattus norvegicus; experiment: Anti-asthmatic activity against ovalbumin-induced asthmatic Sprague-Dawley rat model assessed as reduction in total IgE level in BALF at 4.5 to 18 mg/kg, po for 7 days by ELISA; details: dose 4.5-18 mg/kg, time 7.0 day
[14] = test system: Rattus norvegicus; experiment: Anti-asthmatic activity against ovalbumin-induced asthmatic Sprague-Dawley rat model assessed as reduction in total IgE level in serum at 4.5 to 18 mg/kg, po for 7 days by ELISA; details: dose 4.5-18 mg/kg, time 7.0 day
[15] = test system: Rattus norvegicus; experiment: Anti-asthmatic activity against ovalbumin-induced asthmatic Sprague-Dawley rat model assessed as reduction in NFkappaB protein expression in lungs at 4.5 to 18 mg/kg, po for 7 days by immunohistochemistry analysis; details: dose 4.5-18 mg/kg, time 7.0 day
[16] = test system: Rattus norvegicus; experiment: Anti-asthmatic activity against ovalbumin-induced asthmatic Sprague-Dawley rat model assessed as reduction in eotaxin level in BALF at 4.5 to 18 mg/kg, po for 7 days by ELISA; details: dose 4.5-18 mg/kg, time 7.0 day
[17] = test system: Rattus norvegicus; experiment: Anti-asthmatic activity against ovalbumin-induced asthmatic Sprague-Dawley rat model assessed as reduction in NFkappaB protein expression in lungs at 4.5 to 18 mg/kg, po for 7 days by western blot analysis; details: dose 4.5-18 mg/kg, time 7.0 day
[18] = test system: Rattus norvegicus; experiment: Anti-asthmatic activity against ovalbumin-induced asthmatic Sprague-Dawley rat model assessed as reduction in IL-13 cytokine level in BALF at 4.5 to 18 mg/kg, po for 7 days by ELISA; details: dose 4.5-18 mg/kg, time 7.0 day
[19] = test system: Rattus norvegicus; experiment: Anti-asthmatic activity against ovalbumin-induced asthmatic Sprague-Dawley rat model assessed as reduction in IL-5 cytokine level in BALF at 4.5 to 18 mg/kg, po for 7 days by ELISA; details: dose 4.5-18 mg/kg, time 7.0 day

Measured: Activity

O=C(/C=C/c1ccc(O)c(O)c1)O[C@H](Cc1ccc(O)c(O)c1)C(=O)O
active: [1] | [2] | [3] | [4] | [5] | [6] Dde | [7] | [8] | [9] | [10] Dde | [11] | [12] | [13] | [14] | [15] | [16] | [17] | [18] | [19]
